Drawing on patent US6635641B2 (Agouron Pharmaceuticals, Inc., priority 2000, dated 2003), this text covers Ki and inhibition for 32 molecules.

Molecules are shown by their SMILES. pKi: −log10 of the molar value. Structures can show the parent of a compound that is named as a salt.

The first experiment deals with T1, phosphorylated VEGF-R2Δ50 (FLVK-P) (Homo sapiens, UniProt P35968, DEL940-989/E990V).
T1 construct: VEGF-R2Δ50 contains residues 806-939 and 990-1171; made in house; host or cells: baculovirus/insect cells
T1 sequence (P35968 with tags, fused parts or gaps DEL940-989/E990V limits assumed): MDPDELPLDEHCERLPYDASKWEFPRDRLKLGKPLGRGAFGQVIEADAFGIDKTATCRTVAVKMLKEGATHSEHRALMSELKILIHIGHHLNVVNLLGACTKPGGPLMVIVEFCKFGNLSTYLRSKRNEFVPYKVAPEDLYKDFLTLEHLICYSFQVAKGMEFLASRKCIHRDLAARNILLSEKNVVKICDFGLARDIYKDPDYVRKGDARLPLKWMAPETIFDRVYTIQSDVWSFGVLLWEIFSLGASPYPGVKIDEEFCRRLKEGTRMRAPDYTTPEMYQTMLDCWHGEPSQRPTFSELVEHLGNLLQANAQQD
The experiment in a line: VEGF-R2 coupled spectrophotometric assay, phosphorylated construct (FLVK-P). The format is biochemical.
Details: not given
An excerpt: A construct (VEGF-R2Δ50) of the cytosolic domain of human vascular endothelial growth factor receptor 2 (VEGF-R2) lacking the 50 central residues of the 68 residues of the kinase insert domain was expressed in a baculovirus/insect cell system. Of the 1356 residues of full-length VEGF-R2, VEGF-R2Δ50 contains residues 806-939 and 990-1171, and also one point mutation (E990V) within the kinase insert domain relative to wild-type VEGF-R2. See commonly assigned, co-pending U.S. patent application Ser. No. 09/390,326, filed Sep. 7, 1999, incorporated by reference herein, for discussion of VEGF constructs and expression systems. Autophosphorylation of the purified construct was performed by incubation of the enzyme at a concentration of 4 μM in the presence of 3 mM ATP and 40 mM MgCl2 in 100 mM Hepes, pH 7.5, containing 5% glycerol and 5 mM DTT, at 4° C. for 2 h. […] See Parast et al., Biochemistry, 37, 16788-16801 (1998).
The production of ADP from ATP that accompanies phosphoryl transfer was coupled to oxidation of NADH using phosphoenolpyruvate (PEP) and a system having pyruvate kinase (PK) and lactic dehydrogenase (LDH). The oxidation of NADH was monitored by following the decrease of absorbance at 340 nm (e340=6.22 cm^−1 mM^−1) using a Beckman DU 650 spectrophotometer. Assay conditions for phosphorylated VEGF-R2Δ50 (indicated as FLVK-P in the tables below) were the following: 1 mM PEP; 250 μM NADH; 50 units of LDH/mL; 20 units of PK/mL; 5 mM DTT; 5.1 mM poly(E4Y1); 1 mM ATP; and 25 mM MgCl2 in 200 mM Hepes, pH 7.5. Assay conditions for unphosphorylated VEGF-R2Δ50 (indicated as FLVK in the tables) were the following: 1 mM PEP; 250 μM NADH; 50 units of LDH/mL; 20 units of PK/mL; 5 mM DTT; 20 mM poly(E4Y1); 3 mM ATP; and 60 mM MgCl2 and 2 mM MnCl2 in 200 mM Hepes, pH 7.5. Assays were initiated with 5 to 40 nM of enzyme. Ki values were determined by measuring enzyme activity in the presence of varying concentrations of test compounds. The data were analyzed using Enzyme Kinetic and Kaleidagraph software.
By pKi is commonly meant the negative decadic logarithm of the Ki, by convention in mol/L. In turn, `Cc1cc(NC(=O)c2cccc(CSc3nc(N)n[nH]3)c2)ccc1C(C)C` [Example A-4, N-(4-Isopropyl-3-methylphenyl)-3-[(5-amino-2H-[1,2,4]triazol-3-yl)sulfanylmethyl]benzamide] showed a pKi of 4.89.
In turn, `C=CCn1ccc2cc(NC(=O)c3cccc(OCc4cccnc4)c3)ccc21` [Example K-7, N-(1-Allyl-1H-indol-5-yl)-3-(pyridin-3-yl)methoxy-benzamide] showed a pKi of 6.91.
The molecule `O=C(Nc1cccc(OC(F)(F)F)c1)c1cccc(CSc2ncnc3[nH]ncc23)c1` [Example B-20] had a pKi of 7.59.
Still for that read-out and setting: for `Cc1ccc2cc(NC(=O)c3cccc(SCc4cccnc4)c3)ccc2n1` [Example D-3, N-(2-Methyl-quinolin-6-yl)-3-(pyridin-3-ylmethylsulfanyl)-benzamide dihydrochloride] the value was 6.88; for `COc1ccccc1NC(=O)c1cccc(CSc2ncnc3[nH]ncc23)c1` [Example B-9, N-(2-Methoxyphenyl)-3-[(1H-pyrazolo[3,4-d]pyrimidin-4-yl)sulfanylmethyl]benzamide], 4.77.
`COc1ccccc1CNC(=O)c1cccc(CSc2ncnc3[nH]ncc23)c1` [Example B-7, N-(2-Methoxybenzyl)-3-[(1H-pyrazolo[3,4-d]pyrimidin-4-yl)sulfanylmethyl]benzamide]: the pKi is 5.48. Compared with the last molecule, the pKi is 0.71 log units higher.
The same measure, in the same setting: for `O=C(NOCc1ccccc1)c1cccc(OCc2cncc3ccccc23)c1` [Example R-7, N-Benzyloxy-3-(isoquinolin-4-ylmethoxy)-benzamide] the value was 6.49; for `COc1ccc(NC(=O)c2cccc(CSc3ncnc4[nH]ncc34)c2)cn1` [Example B-2], 5.74.
The same measure, in the same setting: for `COc1cc(NC(=O)c2cccc(OCc3cccnc3)c2)cc(OC)c1OC` [Example K-5, 3-(Pyridin-3-yl)methoxy-N-(3,4,5-trimethoxyphenyl)benzamide] the value was 5.90; for `O=C(NCc1ccncc1)c1cccc(CSc2ncnc3[nH]ncc23)c1` [Example B-5, N-(Pyridin-4-yl)methyl-3-[(1H-pyrazolo[3,4-d]pyrimidin-4-yl)sulfanylmethyl]benzamide], 4.96; for `O=C(Nc1ccc2ncccc2c1)c1cccc(OCc2cccnc2)c1` [Example K-8, 3-(Pyridin-3-yl)methoxy-N-quinolin-6-yl-benzamide], 6.15.
Still for that read-out and setting: for `Cc1cc(C)cc(NC(=O)c2cccc(CSc3ncnc4[nH]ncc34)c2)c1` [Example B-21, 3-[(1H-Pyrazolo[3,4-d]pyrimidin-4-yl)sulfanylmethyl]-N(3,5-dimethylphenyl)-benzamide] the value was 6.68.
Take `Cc1ccc2cc(NC(=O)c3cccc(CCc4cccnc4)c3)ccc2n1` [Example U-1, N-(2-Methyl-quinolin-6-yl)-3-(2-pyridin-3-yl-ethyl)-benzamide hydrochloride]: the negative logarithm of the Ki (pKi) is 7.17.
On to `O=C(Nc1cccc(S(=O)(=O)C(F)(F)F)c1)c1cccc(CSc2ncnc3[nH]ncc23)c1` [Example B-24, 3-[(1H-Pyrazolo[3,4-d]pyrimidin-4-yl)sulfanylmethyl]-N(3-trifluoromethylsulfonylphenyl)-benzamide], for which the negative-log Ki (pKi) was 7.43. Against the preceding molecule, the pKi is 0.26 log units higher.
As for `COc1cc(NC(=O)c2cccc(OCc3cncc4ccccc34)c2)cc(OC)c1OC` [Example K-2, 3-(Isoquinolin-4-yl)methoxy-N-(3,4,5-trimethoxyphenyl)benzamide hydrochloride], the negative logarithm of the Ki (pKi) was 6.86.
On the same count and under the same terms, next, `Cc1cc(NC(=O)c2cccc(CSc3ncnc4[nH]ncc34)c2)no1` [Example B-4, N-(5-Methylisoxazol-3-yl)-3-[(1H-pyrazolo[3,4-d]pyrimidin-4-yl)sulfanylmethyl]benzamide]: 4.46; `Cc1cc(NC(=O)c2cc(CCc3cncc4ccccc34)ccc2F)ccc1C(C)C` [Example T-1, 2-Fluoro-N-(4-isopropyl-3-methyl-phenyl)-5-(2-isoquinolin-4-yl-ethyl)-benzamide]: 7.87.
Same read-out and setting: next, `O=C(Nc1ccc2ccccc2c1)c1cccc(OCc2cccnc2)c1` [Example K-6, N-(Naphthalen-2-yl)-3-(pyridin-3-yl)methoxybenzamide]: 6.70.

Still in this experiment, the particulars now being: @ 50 nM; read-out: FLVK-P percent inhibition.
By inhibition is commonly meant how much of the control response was suppressed. On to `Cc1cc(C)nc(NC(=O)c2cccc(CCc3cncc4ccccc34)c2)c1` [Example S-6, N-(4,6-Dimethyl-pyridin-2-yl)-3-(2-isoquinolin-4-yl-ethyl)-benzamide], for which the inhibition at 0.05 µM came to 6%.
On the same count and under the same terms, for `C=CCc1cc(NC(=O)c2cccc(OCc3cncc4ccccc34)c2)cc(CC=C)c1C` [Example R-1, N-(3,5-Diallyl-4-methyl-phenyl)-3-(isoquinolin-4-ylmethoxy)-benzamide] the value was 49%.

The same experiment, now with this note: @ 1 μM; read-out: FLVK-P percent inhibition.
`O=C(Nc1ccccc1)c1cccc(CCc2cncc3ccccc23)c1` [Example S-1, 3-(2-Isoquinolin-4-yl-ethyl)-N-phenyl-benzamide]: the inhibition at 1 µM was 2%.
The same measure, in the same setting: for `CN(C)c1ccc(NC(=O)c2cccc(CSc3ncnc4[nH]ncc34)c2)cc1` [Example B-23, 3-[(1H-Pyrazolo[3,4-d]pyrimidin-4-yl)sulfanylmethyl]-N(4-dimethylaminophenyl)-benzamide] the value was 17%; for `COc1cc(/C=C/c2cc(CNc3cccc(C(=O)Nc4ccccc4)c3)n[nH]2)ccc1O` [Example I-2, 3-[({5-[(E)-2-(4-hydroxy-3-methoxyphenyl)ethenyl]-1H-pyrazol-3-yl}methyl)amino]-N-phenylbenzamide], 16%.
On the same count and under the same terms, next, `COc1cc(C(=O)Nc2cccc(CSc3ncnc4[nH]ncc34)c2)ccc1O` [Example V-3, N-{3-[(1H-pyrazolo[3,4-d]-pyrimidin-4-yl)sulfanylmethyl]phenyl}-(4-hydroxy-3-methoxy)benzamide]: 42%; `CC1CC(NC(=O)c2cccc(CCc3cncc4ccccc34)c2)CC(C)(C)C1` (centres unmarked) [Example S-2, 3-(2-Isoquinolin-4-yl-ethyl)-N-(3,3,5-trimethyl-cyclohexyl)-benzamide]: 28%.
The same measure, in the same setting: next, `CC(C)c1ccc(NC(=O)c2cccc(CSc3ncnc4[nH]ncc34)c2)cc1` [Example B-19, 3-[(1H-Pyrazolo[3,4-d]pyrimidin-4-yl)sulfanylmethyl]-N(4-isopropylphenyl)-benzamide]: 42%.
With `CC(O)c1cccc(NC(=O)c2cccc(CSc3ncnc4[nH]ncc34)c2)c1` (centres unmarked) [Example B-22], the inhibition at 1 µM came to 32%.
For `CN(C)c1cccc(NC(=O)c2cccc(CSc3ncnc4[nH]ncc34)c2)c1` [Example B-25, 3-[(1H-Pyrazolo[3,4-d]pyrimidin-4-yl)sulfanylmethyl]-N(3-dimethylaminophenyl)-benzamide], the inhibition at 1 µM was 26%.
With `Cc1cc(C)c2ccc(NC(=O)c3cccc(OCc4cncc5ccccc45)c3)nc2n1` [Example R-9, N-(5,7-dimethyl[1,8]naphthydrin-2-yl)-3-(isoquinolin-4-ylmethoxy)-benzamide], the inhibition at 1 µM stood at 9%.

Staying with this experiment, now noted: @ 5 μM; read-out: FLVK-P percent inhibition.
With `O=C(NNc1ccc(C(F)(F)F)cc1)c1cccc(OCc2cncc3ccccc23)c1` [Example R-6, 3-(Isoquinolin-4-ylmethoxy)-benzoic acid N′-(4-trifluoromethyl-phenyl)hydrazide], the inhibition at 5 µM worked out at 16%.
Turning to `O=C(NNc1ccccc1)c1cccc(OCc2cncc3ccccc23)c1` [Example R-8, 3-(Isoquinolin-4-ylmethoxy)-benzoic acid N′-phenyl-hydrazide], the inhibition at 5 µM was 4%.

Still in this experiment, the particulars now being: μM.
For orientation: Ki means a dissociation constant, usually derived from enzyme kinetics or from competition with a known ligand. A low value points to a stronger hold on the target. In turn, `COc1cc(NC(=O)c2cccc(CSc3nc(N)n[nH]3)c2)cc(OC)c1OC` [Example A-2, N-(3,4,5-Trimethoxyphenyl)-3-[(5-amino-2H-[1,2,4]triazol-3-yl)sulfanylmethy]benzamide] yielded an inhibition constant (Ki) of 100 µM.
